Test system: Han Wistar rats
Test: Increased bone formation in rats, four-week oral gavage study, light microscopy of femur, femorotibial joint and sternum
Format: in vivo, rat
Method: Male and female Han Wistar rats were dosed by oral gavage, at dosages of 15, 55 or 100 μmol/kg/day for four weeks and compared to vehicle controls. Complete necropsies were performed and the tissues preserved in 10% formalin. The femur, femorotibial joint and sternum were decalcified, embedded in paraffin, sectioned at 5 μm thickness and stained with hematoxylin and eosin.

[1] = rat, 100 μmol/kg for 4 weeks, vs vehicle-treated control rat (FIG. 1a)

N#Cc1ccc2[nH]c(O)c(-c3ccc(CN4CCOCC4)cn3)c2c1.O=C(O)CC(O)(CC(=O)O)C(=O)O [Example 1, 2-Hydroxy-3-[5-(morpholin-4-ylmethyl)pyridin-2-yl]1H-indole-5-carbonitrile citrate salt]
bone formation as evaluated by light microscopy (male and female Han Wistar rats, oral gavage, 100 μmol/kg dose level, four weeks, vs vehicle controls, femur, femorotibial joint, sternum, H&E): increased bone formation in the form of thickened trabeculae, thickened cortical bone, periosteal hyperostosis and increased number of osteoblasts

N#Cc1ccc2[nH]c(O)c(-c3ccc(CN4CCOCC4)cn3)c2c1 [compound (I), 2-hydroxy-3-[5-(morpholin-4-ylmethyl)pyridin-2-yl]1H-indole-5-carbonitrile]
formation of osteoid in the femur (epiphysis), FIG. 1b [1]: marked increase in formation of osteoid
number of osteoblasts in the femur (epiphysis), FIG. 1b [1]: increased number of osteoblasts
